Here are results for six molecules from article PMC8338929, “Acetylation turns leucine into a drug by membrane transporter switching” (Scientific Reports, 2021).

What is called Km is the substrate concentration at which the rate is half of its maximum. Broadly, the Ki is the dissociation constant of the complex between target and ligand, obtained from inhibition or displacement. The term IC50 denotes the concentration needed to halve the response being measured. A high value points to lower potency.

For data set [1], the system named is LAT1. The settings on record: read-out: Km LAT1; quoted in discussion, no reference given; cited from earlier work.
Data set [2] is described as follows: N-acetyl-leucine metabolism in pooled mouse liver S9 fraction (LC-MS). In kind it is in vitro ADME. The note with it: 1 µM initial concentration, 0-60 min.
Data set [3] can be described thus: N-acetyl-leucine metabolism in pooled human liver S9 fraction (LC-MS). In kind it is in vitro ADME. The note with it: 1 µM initial concentration, 0-60 min.
Data set [4] concerns the target T1, human MCT1 (SLC16A1) (Homo sapiens, UniProt P53985).
T1 construct: host or cells: MDCK-II
T1 sequence (P53985 1-500): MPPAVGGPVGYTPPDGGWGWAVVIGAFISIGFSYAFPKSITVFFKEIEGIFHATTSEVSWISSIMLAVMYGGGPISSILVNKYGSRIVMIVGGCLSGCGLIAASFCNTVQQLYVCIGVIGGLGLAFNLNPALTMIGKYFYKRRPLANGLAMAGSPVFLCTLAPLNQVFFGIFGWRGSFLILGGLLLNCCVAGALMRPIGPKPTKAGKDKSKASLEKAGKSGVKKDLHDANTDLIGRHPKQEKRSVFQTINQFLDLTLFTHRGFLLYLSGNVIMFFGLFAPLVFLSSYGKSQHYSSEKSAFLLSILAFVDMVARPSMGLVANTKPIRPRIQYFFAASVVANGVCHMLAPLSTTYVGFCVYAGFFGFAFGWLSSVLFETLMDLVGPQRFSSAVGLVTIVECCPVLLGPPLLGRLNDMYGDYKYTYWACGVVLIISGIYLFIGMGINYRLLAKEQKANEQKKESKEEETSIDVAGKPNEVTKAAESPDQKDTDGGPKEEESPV
As to the kind of experiment: MCT1-mediated cellular uptake in transfected MDCK-II cells. In kind it is cell-based. The settings on record: 1 min, room temperature, Michaelis-Menten fit. Here is the method: (§1) Transport studies with human PepT1 (SLC15A1), LAT1 (SLC7A5) and MCT1 (SLC16A1) were conducted in MDCK-II cells expressing the human transporter or control cells expressing a vector with Green Fluorescence Protein. Cells were transfected using a proprietary, transient transfection system (OPTI-EXPRESSION Technology, BioIVT). The results from the control cells were used to correct for substrate permeation by routes other than the transporter being investigated in the study. […] Specifically, Net Transporter Mediated Substrate Uptake (pmol/min/cm^2) = (Cellular accumulation in the presence of the transporter) − (Mean cellular accumulation in the absence of the transporter). MDCK-II cells were maintained in DMEM with low glucose and 10% FBS. Cells were used at passages up to 40 were seeded at 60,000 ± 10,000 cells/well on 96-well plates approximately 24 h before transfection, and transport assays were performed approximately 48 h after transfection. Transport studies in MDCK-II cells were conducted in 96-well insert plates with permeable membrane (0.4 µm) and receiver tray (Millipore MultiScreen Filter 96-well).
(§2) Transport studies with PepT1 were conducted in 96-well cell culture plate with wells containing a monolayer of MDCK-II cells grown on a permeable support and a corresponding 96-well receiver tray. Cell plates are maintained at 37 °C in 5% CO2 atmosphere prior to initiation of the transport experiment. Pre-incubation was conducted in HBSS, pH 7.4. The transport experiments were conducted in HBSS with Bis–Tris, pH 5.5, without phenol red. Both pre-incubation and incubation were conducted at 37 °C. All final assay solutions of probe substrate, reference inhibitor or test article contain 0.5% (v/v) DMSO (vehicle control). The culture plate insert […] was washed with warm HBSS three times and then blotted dry. The culture plate wells […] were washed with warm HBSS three times. […] Then a 30-µL sample was taken and mixed with 200 µL of scintillation fluid and scintillation counted (1450 Microbeta, Perkin-Elmer). […]

Data set [5] has as its target T1, human MCT1 (SLC16A1). The data set can be described thus: Inhibition of MCT1 uptake of probe substrate 2-thiophene glyoxylate in MDCK-II cells. Type of data set: cell-based. As for the experimental part:
as §1
as §2, with “times. 100 µL of 37 °C HBSS pH 7.4 pre-incubation buffer to the apical compartment as follows: for the probe substrate transport assay, the HBSS contains vehicle; for the reference inhibition assay, the HBSS contains the reference inhibitor at the required concentration; for the test article assays, the HBSS in each well contains test compound at the specified concentration. The plates were incubated at 37 °C with orbital shaking at approximately 60 rpm for the pre-incubation (30 min), aspirated and then 100 µL of the experimental buffer was added.” for “times.”

Substrate in data set [6]: CC(=O)N[C@@H](CC(C)C)C(=O)O
As to the kind of experiment: cells, lysate or membranes. The note with it: Michaelis-Menten fit.

Take `CC(C)C[C@H](N)C(=O)O` [L-leucine]: the Km in data set [1] was 200 µM. Take `[2H]C([2H])([2H])C([2H])(C([2H])([2H])[2H])C([2H])([2H])C([2H])(NC(C)=O)C(=O)O` (racemic) [N-acetyl-DL-[^2H10]leucine]: the “disappearance: asymptote as % of the initial concentration, mouse liver S9” value in data set [2] is about 50%. Also, in data set [3], the “disappearance: asymptote as % of the initial concentration, human liver S9” value is recorded as about 50%. In the case of `CC(=O)N[C@H](CC(C)C)C(=O)O` [N-acetyl-D-leucine], in data set [4], the Km was 1000 µM and the “Vmax MCT1 uptake” value amounted to 80. Further, the Ki in data set [5] (Cheng-Prusoff equation from IC50, competitive inhibition assumed, read-out: affinity (Ki) MCT1) was 1.6 mM. In data set [5] (probe 2-thiophene glyoxylate 500 µM, positive control phloretin 500 µM), the IC50 was determined as 11 mM.

B1: Human OAT1 (SLC22A6) (Homo sapiens) (protein)
chain: MAFNDLLQQVGGVGRFQQIQVTLVVLPLLLMASHNTLQNFTAAIPTHHCRPPADANLSKNGGLEVWLPRDRQGQPESCLRFTSPQWGLPFLNGTEANGTGATEPCTDGWIYDNSTFPSTIVTEWDLVCSHRALRQLAQSLYMVGVLLGAMVFGYLADRLGRRKVLILNYLQTAVSGTCAAFAPNFPIYCAFRLLSGMALAGISLNCMTLNVEWMPIHTRACVGTLIGYVYSLGQFLLAGVAYAVPHWRHLQLLVSAPFFAFFIYSWFFIESARWHSSSGRLDLTLRALQRVARINGKREEGAKLSMEVLRASLQKELTMGKGQASAMELLRCPTLRHLFLCLSMLWFATSFAYYGLVMDLQGFGVSIYLIQVIFGAVDLPAKLVGFLVINSLGRRPAQMAALLLAGICILLNGVIPQDQSIVRTSLAVLGKGCLAASFNCIFLYTGELYPTMIRQTGMGMGSTMARVGSIVSPLVSMTAELYPSMPLFIYGAVPVAASAVTVLLPETLGQPLPDTVQDLESRWAPTQKEAGIYPRKGKQTRQQQEHQKYMVPLQASAQEKNGL
In the case of B1, the Km in data set [6] (other: HEK-293 cells, pH 7.4) stood at 11000 µM.

B2: human MCT1 (SLC16A1) (Homo sapiens) (protein)
chain: T1 sequence (P53985 1-500)
For the molecule B2, the Km in data set [6] (other: MDCK-II cells, 1 min, room temperature) came to 3000 µM.

B3: Human OAT3 (SLC22A8) (Homo sapiens) (protein)
chain: MTFSEILDRVGSMGHFQFLHVAILGLPILNMANHNLLQIFTAATPVHHCRPPHNASTGPWVLPMGPNGKPERCLRFVHPPNASLPNDTQRAMEPCLDGWVYNSTKDSIVTEWDLVCNSNKLKEMAQSIFMAGILIGGLVLGDLSDRFGRRPILTCSYLLLAASGSGAAFSPTFPIYMVFRFLCGFGISGITLSTVILNVEWVPTRMRAIMSTALGYCYTFGQFILPGLAYAIPQWRWLQLTVSIPFFVFFLSSWWTPESIRWLVLSGKSSKALKILRRVAVFNGKKEEGERLSLEELKLNLQKEISLAKAKYTASDLFRIPMLRRMTFCLSLAWFATGFAYYSLAMGVEEFGVNLYILQIIFGGVDVPAKFITILSLSYLGRHTTQAAALLLAGGAILALTFVPLDLQTVRTVLAVFGKGCLSSSFSCLFLYTSELYPTVIRQTGMGVSNLWTRVGSMVSPLVKITGEVQPFIPNIIYGITALLGGSAALFLPETLNQPLPETIEDLENWSLRAKKPKQEPEVEKASQRIPLQPHGPGLGSS
Regarding B3, the Km in data set [6] (other: HEK-293 cells, pH 7.4) turned out to be 7800 µM.
